The text below walks through data of patent US11465997B2, “Synthesis of disorazoles and analogs thereof as potent anticancer agents” (WILLIAM MARSH RICE UNIVERSITY, priority 2017, dated 2022).

pIC50: −log10 of the molar value. Like-named read-outs stand apart in the source and are kept apart here. Non-standard residues stand in square brackets, D forms with d. Residues, ends and D or L forms follow the SMILES beside them. *: point of attachment. Dolaproine = CO[C@@H]([C@@H]1CCCN1)[C@@H](C)C(=O)O; Dil = CC[C@H](C)[C@H](NC)[C@@H](CC(=O)O)OC; X1 = C[C@@H](N*)[C@@H](O)c1ccccc1; NMeV = CN[C@H](C(=O)O)C(C)C

For one series, the system named is lung cancer cell lines. To be noted: Jansen et al., 1994 and Elnakady et al., 2004, read-out: IC50 against lung cancer cell line; cited from earlier work.
Series [1] deals with prostate cancer cell lines. To be noted: Jansen et al., 1994 and Elnakady et al., 2004, read-out: IC50 against prostate cancer cell line; cited from earlier work.
In series [2] the test system is ovarian cancer cell lines. The note with it: Jansen et al., 1994 and Elnakady et al., 2004, read-out: IC50 against ovarian cancer cell line; cited from earlier work.
For series [3], the system named is MES SA uterine sarcoma cell line. Briefly: 72 h killing (cytotoxicity) assay, MES SA. The format is cell-based, human. To be noted: MES SA cells, read-out: Cytotoxic activity IC50.
The subject of series [4] is MES SA DX (MES SA cell line with marked multidrug resistance). Briefly: 72 h killing (cytotoxicity) assay, MES SA DX. The note with it: MES DX (MES SA DX) cells, multidrug resistant, read-out: Cytotoxic activity IC50. In kind it is cell-based, human.
Series [5] is described as follows: 72 h killing (cytotoxicity) assay, HEK 293T. In kind it is cell-based. To be noted: human; 293T (HEK 293T) cells; read-out: Cytotoxic activity IC50.
Series [6] in a line: solubility of the product in solvents. In kind it is physicochemical. To be noted: e.g., MeOH, DMSO, DCM, CHCl3, MeCN. The procedure: To a stirred solution of compound 108 (9.0 mg, 9.0 μmol, 1.0 equiv) in DMF (300 μL) and H2O (2.3 μl, 130 μmol, 14 equiv) was added TASF (12 mg, 45 μmol, 5.0 equiv) and the reaction mixture was heated at 40° C. and stirred for 48 h. The resulting mixture was filtered through a small silica pad (10 cm, SiO2, hexanes:EtOAc 1:1→0:1). The resulting fractions containing the desired products were combined, concentrated and purified by flash column chromatography (SiO2, hexanes:EtOAc 1:1→1:4→0:1) to yield bis-(cp-thiazolyl)-disorazole B1 (7, 3.0 mg, 4.2 μmol, 46% yield) as a white foam. […] 86: Rf=0.15 (hexanes:EtOAc, 2:3); IR (film): vmax=3439, 2922, 2852, 1714, 1629, 1212, 1104, 964 cm^−1; ^1H NMR (600 MHz, DMSO-d6 with DCM) δ 8.37 (s, 2H), 6.45-6.37 (m, 2H), 6.21 (d, J=11.9 Hz, 2H), 6.15 (t, J=11.8 Hz, 2H), 5.66 (dd, J=14.1, 11.0 Hz, 2H), 5.60-5.49 (m, 4H), 5.39-5.31 (m, 2H), 5.23-5.11 (m, 4H), 4.64 (d, J=4.6 Hz, 2H), 3.73 (t, J=5.3 Hz, 2H), 2.70 (q, J=12.0 Hz, 2H), 2.29-2.22 (m, 2H), 2.22-2.13 (m, 2H), 1.82-1.73 (m, 2H), 1.64 (d, J=4.9 Hz, 6H), 0.96 (s, 6H), 0.88 (s, 6H), 0.60 (dd, J=10.4, 4.9 Hz, 4H) ppm; ^13C NMR (151 MHz, DMSO-d6 with DCM) δ 163.45, 159.37, 145.61, 142.90, 133.36, 131.70, 131.53, 127.55, 126.37, 125.78, 123.99, 118.18, 76.27, 75.30, 41.33, 27.65, 23.24, 19.05, 19.03, 18.95, 17.63, 16.64. ppm; HR-MS (ESI-TOF): calcd for C44H54O6N2S2Na^+ [M+Na]^+: 793.3316. […]

As a reminder, the pIC50 is the IC50 on a negative log10 scale, so that one unit is a factor of ten. Regarding `C/C=C/[C@H](O)C(C)(C)[C@@H]1C\C=C/C=C\C=C\[C@H](OC)Cc2nc(co2)C(=O)O[C@H](C(C)(C)[C@@H](O)/C=C/C)C/C=C\[C@H]2O[C@H]2/C=C/C=C\c2nc(co2)C(=O)O1` [Disorazole A1, (2Z,4E,6S,8R,9Z,12S,20R,21E,23Z,25Z,28S)-12,28-Bis[(3S,4E)-3-hydroxy-2-methylhex-4-en-2-yl]-20-methoxy-7,13,17,29,33-pentaoxa-34,35-diazatetracyclo[29.2.1.1^15,18.0^6,8]pentatriaconta-1 (34),2,4,9,15,18 (35),21,23,25,31-decaene-14,30-dione], the pIC50 with lung cancer cell lines is 11.64; in series [1], 11.15; in series [2], 11.31.
`CC[C@H](C)[C@@H]([C@@H](CC(=O)N1CCC[C@H]1[C@H](OC)[C@@H](C)C(=O)N[C@H](C)[C@@H](O)c1ccccc1)OC)N(C)C(=O)[C@@H](NC(=O)[C@@H](NC)C(C)C)C(C)C` [MMAE, monomethyl auristatin E] (H-[NMeV]V[Dil][Dolaproine]-X1): the pIC50 in series [3] was 9.29; in series [4] it was 6.97.
The IC50 is the concentration that inhibits the measured activity by half. On to `C/C=C/[C@H](O)C(C)(C)[C@@H]1C\C=C/C=C\C=C\[C@H](OC)Cc2nc(co2)C(=O)O[C@H](C(C)(C)[C@@H](O)/C=C/C)C/C=C\[C@H]2C[C@H]2/C=C/C=C\c2nc(co2)C(=O)O1` [compound 5, (2Z,4E,6S,8R,9Z,12S,20R,21E,23Z,25Z,28S)-12,28-Bis[(3S,4E)-3-hydroxy-2-methylhex-4-en-2-yl]-20-methoxy-13,17,29,33-tetraoxa-34,35-diazatetracyclo[29.2.1.1^15,18.0^6,8]pentatriaconta-1 (34),2,4,9,15,18 (35),21,23,25,31-decaene-14,30-dione], for which, in series [5], the IC50 at 72 h worked out at 0.06 nM. For the same compound, the pIC50 is 9.96 in series [3] (Homo sapiens) and 9.33 in series [4] (Homo sapiens).
`C/C=C/[C@H](O)C(C)(C)[C@@H]1C/C=C\[C@H]2C[C@H]2/C=C/C=C\c2nc(cs2)C(=O)O[C@H](C(C)(C)[C@@H](O)/C=C/C)C/C=C\[C@H]2C[C@H]2/C=C/C=C\c2nc(cs2)C(=O)O1` [compound 86, (2Z,4E,6S,8R,9Z,12S,19Z,21E,23S,25R,26Z,29S)-12,29-Bis[(3S,4E)-3-hydroxy-2-methylhex-4-en-2-yl]-13,30-dioxa-17,34-dithia-35,36-diazapentacyclo[30.2.1.1^15,18.0^6,8.0^23,25]hexatriaconta-1 (35),2,4,9,15,18 (36),19,21,26,32-decaene-14,31-dione]: the “solubility in pure solvents” value in series [6] is listed as “insoluble in most pure solvents”.
